Experimental data reported in ChEMBL document CHEMBL4311986, “Synthesis and biological evaluation of new multi-target 3-(1H-indol-3-yl)pyrrolidine-2,5-dione derivatives with potential antidepressant effect” (Eur J Med Chem, 2019).

Assays:
[1] = biological target: Sodium-dependent serotonin transporter (Homo sapiens, UniProt P31645); assay: Displacement of [3H]-imipramine from human serotonin transporter expressed in HEK293 cells membranes incubated for 30 mins by microbeta scintillation counting analysis; assay type: cell membranes
Chain of Sodium-dependent serotonin transporter (P31645 whole entry): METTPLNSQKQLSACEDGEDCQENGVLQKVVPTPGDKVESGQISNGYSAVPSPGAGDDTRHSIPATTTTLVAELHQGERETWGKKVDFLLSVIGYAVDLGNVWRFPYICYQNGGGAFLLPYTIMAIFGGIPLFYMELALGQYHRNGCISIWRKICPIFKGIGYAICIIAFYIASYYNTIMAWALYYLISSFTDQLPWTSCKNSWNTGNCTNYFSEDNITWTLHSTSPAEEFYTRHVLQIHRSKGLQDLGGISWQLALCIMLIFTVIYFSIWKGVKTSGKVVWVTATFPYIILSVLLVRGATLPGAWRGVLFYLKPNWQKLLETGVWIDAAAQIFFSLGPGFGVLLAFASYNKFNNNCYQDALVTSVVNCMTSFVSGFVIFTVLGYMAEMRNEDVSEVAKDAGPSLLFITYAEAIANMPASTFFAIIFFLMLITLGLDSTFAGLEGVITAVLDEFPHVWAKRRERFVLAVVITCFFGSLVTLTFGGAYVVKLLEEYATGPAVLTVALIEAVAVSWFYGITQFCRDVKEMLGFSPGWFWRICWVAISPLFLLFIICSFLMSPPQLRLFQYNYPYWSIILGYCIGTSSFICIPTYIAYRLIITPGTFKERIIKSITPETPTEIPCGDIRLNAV

[2] = biological target: T1, 5-hydroxytryptamine receptor 1A (Homo sapiens, UniProt P08908); assay: biochemical
T1 sequence (P08908 whole entry): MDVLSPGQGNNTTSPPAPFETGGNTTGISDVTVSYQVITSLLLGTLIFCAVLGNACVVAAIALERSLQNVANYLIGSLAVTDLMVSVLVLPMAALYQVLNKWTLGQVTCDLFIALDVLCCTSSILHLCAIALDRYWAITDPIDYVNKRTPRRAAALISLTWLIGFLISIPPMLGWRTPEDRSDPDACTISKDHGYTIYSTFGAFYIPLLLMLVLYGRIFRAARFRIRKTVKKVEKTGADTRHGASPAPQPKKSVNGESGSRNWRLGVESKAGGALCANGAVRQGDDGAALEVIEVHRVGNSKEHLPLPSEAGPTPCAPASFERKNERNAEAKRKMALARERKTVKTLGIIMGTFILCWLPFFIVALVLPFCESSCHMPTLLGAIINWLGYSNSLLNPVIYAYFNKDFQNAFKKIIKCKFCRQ

Mus musculus [3] = assay: Induction of hypothermia in CD-1 mouse assessed as change in body temperature at 10 mg/kg, ip measured after 60 mins by thermometric method; assay type: functional, organism-based
Mus musculus [4] = assay: Induction of hypothermia in CD-1 mouse assessed as change in body temperature at 20 mg/kg, ip measured after 120 mins by thermometric method; assay type: functional, organism-based
Mus musculus [5] = assay: Induction of hypothermia in CD-1 mouse assessed as change in body temperature at 10 mg/kg, ip pretreated for 60 mins with 5-HT1AR antagonist WAY100635 followed by compound treatment and measured after 30 mins by thermometric method; assay type: functional, organism-based
[6] = biological target: 5-hydroxytryptamine receptor 7 (Homo sapiens, UniProt P34969); assay: Displacement of [3H]-5-CT from human 5HT7 receptor expressed in HEK293 cells incubated for 1 hr by liquid scintillation counting method; assay type: cell-based
Chain of 5-hydroxytryptamine receptor 7 (P34969 whole entry): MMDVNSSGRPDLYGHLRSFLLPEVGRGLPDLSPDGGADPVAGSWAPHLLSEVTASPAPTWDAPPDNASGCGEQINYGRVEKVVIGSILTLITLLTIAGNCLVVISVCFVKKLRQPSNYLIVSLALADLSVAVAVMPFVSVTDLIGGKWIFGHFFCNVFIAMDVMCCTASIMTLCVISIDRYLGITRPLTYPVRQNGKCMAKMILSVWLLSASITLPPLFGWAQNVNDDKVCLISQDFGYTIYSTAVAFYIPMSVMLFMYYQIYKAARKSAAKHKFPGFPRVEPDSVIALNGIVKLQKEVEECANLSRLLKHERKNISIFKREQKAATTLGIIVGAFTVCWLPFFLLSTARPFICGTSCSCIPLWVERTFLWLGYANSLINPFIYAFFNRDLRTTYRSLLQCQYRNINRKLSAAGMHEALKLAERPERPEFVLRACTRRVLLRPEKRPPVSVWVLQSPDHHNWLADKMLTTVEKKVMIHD

Mus musculus [7] = assay: Induction of hypothermia in CD-1 mouse assessed as change in body temperature at 5 mg/kg, ip measured after 30 mins by thermometric method; assay type: functional, organism-based
Mus musculus [8] = assay: Induction of hypothermia in CD-1 mouse assessed as change in body temperature at 10 mg/kg, ip measured after 120 mins by thermometric method; assay type: functional, organism-based
Mus musculus [9] = assay: Induction of hypothermia in CD-1 mouse assessed as change in body temperature at 5 mg/kg, ip measured after 120 mins by thermometric method; assay type: functional, organism-based
Mus musculus [10] = assay: Induction of hypothermia in CD-1 mouse assessed as change in body temperature at 10 mg/kg, ip measured after 90 mins by thermometric method; assay type: functional, organism-based
Mus musculus [11] = assay: Induction of hypothermia in CD-1 mouse assessed as change in body temperature at 5 mg/kg, ip measured after 90 mins by thermometric method; assay type: functional, organism-based
Mus musculus [12] = assay: Induction of hypothermia in CD-1 mouse assessed as change in body temperature at 20 mg/kg, ip measured after 30 mins by thermometric method; assay type: functional, organism-based
[13] = biological target: 5-hydroxytryptamine receptor 6 (Homo sapiens, UniProt P50406); assay: Displacement of [3H]-LSD from human 5-HT6 receptor expressed in HEK293 cells incubated for 1 hr by liquid scintillation counting method; assay type: cell-based
Chain of 5-hydroxytryptamine receptor 6 (P50406 whole entry): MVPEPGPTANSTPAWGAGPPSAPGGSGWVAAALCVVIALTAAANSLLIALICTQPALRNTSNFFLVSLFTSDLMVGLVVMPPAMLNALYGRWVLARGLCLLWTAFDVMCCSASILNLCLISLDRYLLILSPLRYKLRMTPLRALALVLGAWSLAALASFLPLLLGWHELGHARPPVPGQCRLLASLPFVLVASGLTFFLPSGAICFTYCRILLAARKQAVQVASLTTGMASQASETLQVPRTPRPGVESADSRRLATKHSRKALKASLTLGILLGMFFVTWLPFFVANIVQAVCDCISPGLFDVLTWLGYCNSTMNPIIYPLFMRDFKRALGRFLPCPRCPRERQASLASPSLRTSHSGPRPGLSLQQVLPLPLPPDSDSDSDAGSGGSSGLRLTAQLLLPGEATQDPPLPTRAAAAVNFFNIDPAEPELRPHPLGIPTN

Mus musculus [14] = assay: Induction of hypothermia in CD-1 mouse assessed as change in body temperature at 10 mg/kg, ip measured after 30 mins by thermometric method; assay type: functional, organism-based
Mus musculus [15] = assay: Induction of hypothermia in CD-1 mouse assessed as change in body temperature at 5 mg/kg, ip measured after 60 mins by thermometric method; assay type: functional, organism-based
Mus musculus [16] = assay: Induction of hypothermia in CD-1 mouse assessed as change in body temperature at 10 mg/kg, ip pretreated for 30 mins with 5-HT1AR antagonist WAY100635 followed by compound treatment and measured after 30 mins by thermometric method; assay type: functional, organism-based
[17] = Half life in human liver microsomes at 1 uM measured for 5 to 30 mins in presence of NADPH by LC-MS/MS analysis; assay type: ADME, Microsome
Mus musculus [18] = assay: Induction of hypothermia in CD-1 mouse assessed as change in body temperature at 20 mg/kg, ip measured after 90 mins by thermometric method; assay type: functional, organism-based
Mus musculus [19] = assay: Induction of hypothermia in CD-1 mouse assessed as change in body temperature at 20 mg/kg, ip measured after 60 mins by thermometric method; assay type: functional, organism-based
D(2) dopamine receptor = D(2) dopamine receptor (Homo sapiens, UniProt P14416); assay: Displacement of [3H]-raclopride from human D2L receptor expressed in HEK293 cells incubated for 1 hr by liquid scintillation counting method; assay type: cell-based
Chain of D(2) dopamine receptor (P14416 whole entry): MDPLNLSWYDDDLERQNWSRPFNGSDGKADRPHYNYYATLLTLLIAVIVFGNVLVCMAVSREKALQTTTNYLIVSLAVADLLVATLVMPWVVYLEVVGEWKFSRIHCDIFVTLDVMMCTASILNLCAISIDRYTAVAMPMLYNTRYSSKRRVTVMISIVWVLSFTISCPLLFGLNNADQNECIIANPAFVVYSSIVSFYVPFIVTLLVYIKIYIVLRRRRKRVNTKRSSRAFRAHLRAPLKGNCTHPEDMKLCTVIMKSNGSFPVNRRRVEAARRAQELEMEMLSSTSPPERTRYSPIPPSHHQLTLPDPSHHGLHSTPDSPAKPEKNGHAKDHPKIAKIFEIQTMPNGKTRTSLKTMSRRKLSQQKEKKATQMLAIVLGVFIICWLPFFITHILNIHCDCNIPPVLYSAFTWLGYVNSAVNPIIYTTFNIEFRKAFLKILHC

Mus musculus [20] = assay: Induction of hypothermia in CD-1 mouse assessed as change in body temperature at 15 mg/kg, ip measured after 90 mins by thermometric method (reference value: -0.3 to 0.3 deg C); assay type: functional, organism-based
Mus musculus [21] = assay: Induction of hypothermia in CD-1 mouse assessed as change in body temperature at 15 mg/kg, ip measured after 30 mins by thermometric method (reference value: -0.2 to 0.4 deg C); assay type: functional, organism-based
Mus musculus [22] = assay: Induction of hypothermia in CD-1 mouse assessed as change in body temperature at 15 mg/kg, ip measured after 120 mins by thermometric method (reference value: -0.1 to 0.3 deg C); assay type: functional, organism-based
Mus musculus [23] = assay: Induction of hypothermia in CD-1 mouse assessed as change in body temperature at 15 mg/kg, ip measured after 60 mins by thermometric method (reference value: -0.2 to 0.5 deg C); assay type: functional, organism-based
Mus musculus [24] = assay: Induction of hypothermia in CD-1 mouse assessed as change in body temperature at 15 mg/kg, ip pretreated for 60 mins with 5-HT1AR antagonist WAY100635 followed by compound treatment and measured after 30 mins by thermometric method (reference value: -0.1 to 0.4 deg C); assay type: functional, organism-based
Mus musculus [25] = assay: Induction of hypothermia in CD-1 mouse assessed as change in body temperature at 15 mg/kg, ip pretreated for 30 mins with 5-HT1AR antagonist WAY100635 followed by compound treatment and measured after 30 mins by thermometric method (reference value: -0.1 to 0.1 deg C); assay type: functional, organism-based

| Ki [1] [µM] | Ki [2] [µM] | Ki [6] [µM] | Ki [13] [µM] | half-life at 1 µM [17] [min] | Ki (D(2) dopamine receptor) [µM] | Compound | deltaT (Mus musculus [3]) [°C] | deltaT (Mus musculus [4]) [°C] | deltaT (Mus musculus [7]) [°C] | deltaT (Mus musculus [8]) [°C] | deltaT (Mus musculus [9]) [°C] | deltaT (Mus musculus [10]) [°C] | deltaT (Mus musculus [11]) [°C] | deltaT (Mus musculus [12]) [°C] | deltaT (Mus musculus [14]) [°C] | deltaT (Mus musculus [15]) [°C] | deltaT (Mus musculus [18]) [°C] | deltaT (Mus musculus [19]) [°C] | also measured |
| --- | --- | --- | --- | --- | --- | --- | --- | --- | --- | --- | --- | --- | --- | --- | --- | --- | --- | --- | --- |
| 0.221 | 0.222 | – | – | – | – | COc1ccc2[nH]cc(C3CC(=O)N(CCN4CCC(c5c[nH]c6ccc(F)cc56)CC4)C3=O)c2c1 (stereo not drawn) | – | – | – | – | – | – | – | – | – | – | – | – | – |
| 0.0175 | 0.0049 | 0.641 | 0.085 | 9.9 | 0.062 | COc1ccc2[nH]cc(C3CC(=O)N(CCCCN4CCC(c5c[nH]c6ccc(F)cc56)CC4)C3=O)c2c1 (stereo not drawn) | -0.1 | 0.6 | -0.1 | 0.4 | -0.4 | 0.3 | 0.1 | -1.8 | -1.3 | 0.4 | 0.6 | 0.5 | deltaT (Mus musculus [5]): -0.2 °C; deltaT (Mus musculus [16]): -0.1 °C |
| 0.308 | 0.0023 | 0.32 | 0.427 | 9.7 | 0.217 | COc1ccc2[nH]cc(C3CCN(CCCCN4C(=O)CC(c5c[nH]c6ccc(OC)cc56)C4=O)CC3)c2c1 (stereo not drawn) | 0.6 | -0.5 | 0.2 | 0.4 | 0.4 | 0.6 | 0.2 | -3.1 | -0.5 | 0.3 | -0.6 | -1.2 | deltaT (Mus musculus [20]): 0.5 °C; deltaT (Mus musculus [21]): -0.9 °C; deltaT (Mus musculus [22]): 0.3 °C; deltaT (Mus musculus [23]): 0.2 °C; deltaT (Mus musculus [24]): 0 °C; deltaT (Mus musculus [25]): 0.8 °C |
| 0.151 | 0.143 | – | – | – | – | O=C1CC(c2c[nH]c3ccc(F)cc23)C(=O)N1CCCN1CCC(c2c[nH]c3ccccc23)CC1 (stereo not drawn) | – | – | – | – | – | – | – | – | – | – | – | – | – |
| 0.0324 | 0.007 | 1.16 | 0.301 | 8.6 | 0.019 | O=C1CC(c2c[nH]c3ccc(F)cc23)C(=O)N1CCCCN1CCC(c2c[nH]c3ccc(F)cc23)CC1 (stereo not drawn) | -0.1 | 0.5 | 0.4 | 0.4 | 0.3 | 0.3 | 0.4 | -2 | -1 | 0.2 | 0.1 | -0.4 | deltaT (Mus musculus [5]): 0.4 °C; deltaT (Mus musculus [16]): 0.4 °C |
| 0.102 | 0.32 | – | – | – | – | O=C1CC(c2c[nH]c3ccc(F)cc23)C(=O)N1CCN1CCC(c2c[nH]c3ccccc23)CC1 (stereo not drawn) | – | – | – | – | – | – | – | – | – | – | – | – | – |
| 0.111 | 0.0687 | – | – | – | – | COc1ccc2[nH]cc(C3CCN(CCCN4C(=O)CC(c5c[nH]c6ccc(OC)cc56)C4=O)CC3)c2c1 (stereo not drawn) | – | – | – | – | – | – | – | – | – | – | – | – | – |
| 0.523 | 0.204 | – | – | – | – | COc1ccc2[nH]cc(C3CC(=O)N(CCCN4CCC(c5c[nH]c6ccccc56)CC4)C3=O)c2c1 (stereo not drawn) | – | – | – | – | – | – | – | – | – | – | – | – | – |
| 0.314 | 0.7 | – | – | – | – | O=C1CC(c2c[nH]c3ccc(F)cc23)C(=O)N1CCN1CCC(c2c[nH]c3ccc(F)cc23)CC1 (stereo not drawn) | – | – | – | – | – | – | – | – | – | – | – | – | – |
| – | 0.052 | – | – | – | – | COc1ccc2[nH]cc(C3CCCN(CCCCN4C(=O)CC(c5c[nH]c6ccc(OC)cc56)C4=O)C3)c2c1 (stereo not drawn) | – | – | – | – | – | – | – | – | – | – | – | – | – |
| – | 0.078 | – | – | – | – | COc1ccc2[nH]cc(C3CCCN(CCCCN4C(=O)CC(c5c[nH]c6ccccc56)C4=O)C3)c2c1 (stereo not drawn) | – | – | – | – | – | – | – | – | – | – | – | – | – |
| 0.201 | 0.0032 | 0.458 | 0.071 | 9.9 | 0.02 | COc1ccc2[nH]cc(C3CCN(CCCCN4C(=O)CC(c5c[nH]c6ccc(F)cc56)C4=O)CC3)c2c1 (stereo not drawn) | 0.2 | -0.2 | 0.4 | 0.3 | 0.8 | 0.2 | 0.6 | -3.2 | -1.1 | 0.6 | -0.6 | -1.4 | deltaT (Mus musculus [5]): 0.8 °C; deltaT (Mus musculus [16]): -0.4 °C |
